In brackets after ≈: the same amount, converted by molar mass. Non-standard residues stand in square brackets, D forms with d. Residues, ends and D or L forms follow the SMILES beside them. No end group written: not given here.
Legend:
E. coli ATCC25922 = assay type: cell-based
Source text: (§1) NET1, NET2, NET3, and NET4 peptide antibiotics were used in the experiments. For the purpose of the study, both clinical isolates Methicillin-Resistant S. aureus (MRSA), Vancomycin-resistant Enterococcus (VRE), E. coli ER2566, E. coli 13846 bacteria and ATCC strains S. aureus and E. coli bacteria were used in the MIC study. All strains used in this study have been deposited in a strain collection of the Research Laboratory of Acibadem Mehmet Ali Aydinlar University. For experiment 0.5 McFarland bacterial suspension was prepared in Müeller Hinton Broth (MHB) media. In the 96-well plate, serial dilutions of peptide antibiotics starting from 512 to 0 μg/mL were made in MHB media and added 5 µl of bacterial suspensions. After incubated overnight at 37°C, results were evaluated according to turbidity (Teh et al. [2017]). Ampicillin was used as positive controls.

E. coli ER2566 = assay type: cell-based
Source text: as §1

E. coli NTCC13846 = assay type: cell-based
Source text: as §1

S. aureus ATCC25923 = assay type: cell-based
Source text: as §1

S. aureus ATCC29213 = assay type: cell-based
Source text: as §1

MRSA = assay type: cell-based, Methicillin-Resistant S. aureus
Source text: as §1

VRE = assay type: cell-based, Vancomycin-resistant Enterococcus
Source text: as §1

Proteinase K = Proteinase K (Parengyodontium album, UniProt P06873); assay: Protease resistance, Proteinase K treatment with HPLC analysis; assay type: in vitro ADME; conditions: analytical HPLC
Sequence of Proteinase K (P06873 106-384): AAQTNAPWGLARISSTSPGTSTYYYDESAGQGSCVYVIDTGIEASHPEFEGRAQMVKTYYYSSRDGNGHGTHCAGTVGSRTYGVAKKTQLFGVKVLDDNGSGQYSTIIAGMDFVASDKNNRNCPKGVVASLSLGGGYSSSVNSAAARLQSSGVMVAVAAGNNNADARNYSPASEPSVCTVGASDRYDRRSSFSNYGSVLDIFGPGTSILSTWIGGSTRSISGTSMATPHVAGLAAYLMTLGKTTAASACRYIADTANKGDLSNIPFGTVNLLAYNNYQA
Method: Proteinase K was used for testing the resistance of the designed peptides to proteases, since Proteinase K, a serine protease with broad-spectrum cleavage activity that preferentially cleaves aliphatic and aromatic amino acid residues, is widely used in the literature to determine the protease resistance of antimicrobial peptides (Lucio et al. [2017], Wang et al. [2019]). Afterwards, HPLC characterization was performed to understand the effect of Proteinase K on peptides.

erythrocytes = assay type: cell-based
Method: Hemolytic activity assays were carried out using erythrocytes, using triton X-100 as lysis control agent. Hemolytic activities were analyzed by reading each well with a plate reader spectrophotometer device at 414 nm and the % lysis rate was calculated in Microsoft Excel according to the following formula (Eren et al. [2008]). Lysis%=[OD414-OD414blank]/[OD414totallysis-OD414blank]×100

in vitro = assay type: cell-based
Source text: (§2) MTT Cell Proliferation Kit (Sigma), a colorimetric method, was used for this test to evaluate the damage that peptides can cause in eukaryotic cells and all cell lines used in this study have been deposited in a collection of the Research Laboratory of Acibadem Mehmet Ali Aydinlar University. The cell lines of 3T3 (ATCC CRL-1658) and HaCaT (ATCC PCS-200-011) were revived under appropriate culture conditions and made ready for the experiment. The final concentration of peptides reached 64 to 0.5 μg/mL. Samples were worked in triplicates for each concentration. Cells incubated without peptide-treatment under the same conditions were used as a control. Magainin II, a known natural AMP that has no cytotoxic effects, was used as a positive control (Bacalum and Radu [2015]). The results were analyzed by reading them with a 96-well plate reader at 550 and 690 nm.

3T3 cell line = assay: in vitro; assay type: cell-based
Source text: as §2

HaCaT cell line = assay: in vitro; assay type: cell-based
Source text: as §2

MRSA biofilm [1] = assay: Antibiofilm activity, conventional crystal violet (CV) method; assay type: cell-based, Methicillin-resistant S. aureus
Method: There was 90 µL of 10^6 CFU/mL MRSA in MHB media with fructose transferred into wells. Then, 10 µL of 1:2 serial dilutions of the antimicrobial peptides (1280–0 µg/mL) was added in wells. So that, final concentrations of peptides were 128–0 µg/mL. Plates were incubated at 37°C overnight. After overnight incubation, they were analyzed with conventional CV method. For this purpose, the bacterial cultures were removed, and wells were washed with distilled water. 200 µl of 1% CV dye was added to each well and incubated at room temperature for 15 min in the dark. Then, CV dye was removed, and wells were washed with water. After dried the plate in an oven at 45–50°C, 33% acetic acid was added into wells to dissolve the dye and wells were spectrophotometrically read by Varioscan (Thermo, USA) at 590 nm (Stepanović et al. [2000]). Biofilm inhibiton rates (%) were calculated by the following formula (Liu et al. [2021]): (1-A590ofwellstreatedwithpeptides/[…])×100
Before this calculation, the values obtained from all wells were subtracted from the value from the empty wells (Blank).

MRSA biofilm [2] = assay: Antibiofilm activity, CoMIC method; assay type: cell-based, Methicillin-resistant S. aureus; conditions: peptides added just before the start of biofilm formation
Method: Ninety microliters of 0.5 McF Methicillin-resistant S. aureus (MRSA) (1.5×10^8 CFU/mL) in Congo Red Broth media with fructose was transferred into wells. Plates were incubated at 37°C. At the time just before the start of biofilm formation as optimized in Fig. 4, 10 µL of 1:2 serial dilutions of the antimicrobial peptides (2560–0 µg/mL) was added in wells. So that, final concentrations of peptides were 256–0 µg/mL. Incubation of media continued overnight. Then, wells were evaluated according to their black color formation.

E. coli = assay: SEM of cell membrane integrity; assay type: cell-based; conditions: 16 µg/mL peptide, 10^5 CFU/mL, 37°C, 4–5 h
Method: The effect of NET1 peptides on the integrity of E. coli cell membranes was shown by SEM (Wang et al. [2018]). […] Peptide molecules were mixed with 10^5 CFU/mL of E. coli and incubated at 37°C for 4–5 h. […] After incubation, 20 µL of the mixture containing peptide antibiotics and bacteria was applied to a dialysis membrane. Then, it was fixed and imaged by the SEM microscope. As a negative control, bacteria which was not treated with peptide molecules were also used.

Staphylococcus aureus = tested on: Staphylococcus aureus; set-up: method as in Dean et al. [2011]; conditions: ref Dean et al. [2011]; cited from earlier work

Compound	MIC (E. coli ATCC25922)	MIC (E. coli ER2566)	MIC (E. coli NTCC13846)	MIC (S. aureus ATCC25923)	MIC (S. aureus ATCC29213)	MIC (MRSA)	MIC (VRE)	resistance to proteases (HPLC after proteinase K treatment) (Proteinase K)	HC50 value as times the MIC value (erythrocytes)	therapeutic index for hemolytic activities (erythrocytes)	IC50 (in vitro; human)	IC50 (in vitro; mouse)	therapeutic index for cytotoxic activities (3T3 cell line)	IC50 value as times the MIC value (HaCaT cell line)	therapeutic index for cytotoxic activities (HaCaT cell line)	concentration that provided over 50% biofilm inhibition (MRSA biofilm [1]; CV method)	Peptide concentration inhibiting the biofilm at 100%, Crystal Violet (MRSA biofilm [1]; peptides added at the very beginning of culture)	Peptide concentration inhibiting the biofilm at 100%, CoMIC (MRSA biofilm [2])	effect on E. coli cells seen by SEM (E. coli)	activity of the D-form, times lower than L-form (Staphylococcus aureus)
CC(C)C[C@@H](NC(=O)[C@H](CCCNC(=N)N)NC(=O)[C@@H](CC(C)C)NC(=O)[C@@H](CC(C)C)NC(=O)[C@@H](CC(C)C)NC(=O)[C@@H](N)CCCNC(=N)N)C(=O)N[C@H](CC(C)C)C(=O)N[C@@H](CCCNC(=N)N)C(=O)N[C@@H](CCCNC(=N)N)C(=O)N[C@H](CC(C)C)C(=O)N[C@H](CC(C)C)C(=O)N[C@@H](CCCNC(=N)N)C(=O)N[C@H](CC(C)C)C(=O)N[C@H](CC(C)C)C(=O)N[C@H](CC(C)C)C(=O)N[C@@H](CCCNC(=N)N)C(N)=O [NET1, RLLLRLLRRLLRLLLR-NH2] (H-R[dL][dL][dL]R[dL][dL]RR[dL][dL]R[dL][dL][dL]R-NH2; N-terminus assumed)	2 µg/mL (≈ 0.959 µM)	<0.25 µg/mL	4 µg/mL (≈ 1.92 µM)	4 µg/mL (≈ 1.92 µM)	2 µg/mL (≈ 0.959 µM)	2 µg/mL (≈ 0.959 µM)	0.5 µg/mL (≈ 0.24 µM)	not fractionated by proteases	16–32 times	32	64 µg/mL (≈ 30.7 µM)	32 µg/mL (≈ 15.3 µM)	16	16-32 times	32	2 µg/mL	4 µg/mL	64 µg/mL	lethal to E. coli	–
LL-37: LL-37 peptide, only D-form compared with only L-form in a cited study (LLGDFFRKSKEKIGKEFKRIVQRIKDFLRNLVPRTES; not fully specified; also: all-D and all-L forms; UniProt P49913 134-170, looked up)	–	–	–	–	–	–	–	–	–	–	–	–	–	–	–	–	–	–	–	10 times
